From patent US10647680B2, “Urea compound, preparation method therefor and medical use thereof” (Ancureall Pharmaceutical (Shanghai) Co., Ltd., priority 2016, dated 2020)

Columns and labels:
Assay type in all cases: in vitro ADME
Conditions in all cases: human liver microsomes
CYP2B6 = molecular target: T1, CYP2B6 (Homo sapiens, UniProt P20813); assay: P450 enzyme inhibition, CYP2B6
T1 construct: human liver microsomes (BD Gentest) (0.5 mg/mL); tissue BD Gentest; host or cells: human liver microsomes
T1 sequence (P20813 1-491): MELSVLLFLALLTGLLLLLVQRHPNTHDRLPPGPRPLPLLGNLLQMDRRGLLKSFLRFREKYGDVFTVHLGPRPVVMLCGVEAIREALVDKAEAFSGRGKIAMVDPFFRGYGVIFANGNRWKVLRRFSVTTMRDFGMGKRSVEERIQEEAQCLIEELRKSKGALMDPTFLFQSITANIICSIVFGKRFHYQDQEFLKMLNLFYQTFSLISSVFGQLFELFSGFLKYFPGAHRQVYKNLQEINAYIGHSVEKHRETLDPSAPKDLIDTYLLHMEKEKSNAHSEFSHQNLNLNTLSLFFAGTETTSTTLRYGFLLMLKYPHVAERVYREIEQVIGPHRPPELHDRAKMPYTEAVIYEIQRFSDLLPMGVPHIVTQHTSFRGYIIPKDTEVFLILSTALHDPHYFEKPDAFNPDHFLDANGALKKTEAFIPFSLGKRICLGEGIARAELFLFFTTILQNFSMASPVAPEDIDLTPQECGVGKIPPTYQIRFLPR
Protocol: (§1) Eight cytochrome p450 enzyme inhibition reactions of human liver microsomes were performed using compound 77 of the present invention as a representative example.
(§2) The main reaction systems and processes: in 37° C. water bath, the test compounds (7 concentrations, 0, 0.25, 0.5, 5, 10, 25, and 50 uM; the final methanol concentration was 1% in the system), human liver microsomes (BD Gentest) (0.5 mg/mL) and reducing coenzyme II (Roche 10621706001) (1 mg/mL) and the corresponding cytochrome p450 enzyme probe substrate were co-incubated for 5 to 20 minutes. Among them, (1) the probe substrate for CYP1A2 was Phenacetin ([…]) (Sigma), and the selective inhibitor alpha-naphthoflavone (2 uM) (Sigma) was for parallel detection as positive control, and they were incubated for 20 minutes. (2) The probe substrate for CYP2b6 was Bupropion (40 uM) (Sigma) and the selective inhibitor Ticlopidine (10 uM) (Sigma) was for parallel detection as positive control, and they were incubated for 20 minutes. (3) The probe substrate of CYP2C8 was Amodiaquine (1 uM) (Sigma), and the selective inhibitor Montelukast (10 uM) (Sigma) was for parallel detection as positive control, and they were incubated for 20 minutes. (4) The probe substrate for CYP2C9 was Diclofenac (2.5 uM) (Sigma), and the selective inhibitor Sulphaphenazole (10 uM) (Sigma) was for parallel detection as positive control, and they were incubated for 20 minutes. (5) The probe substrate for CYP2C19 was Mephenytoin (40 uM) (Sigma), and the selective inhibitor Ticlopidine (10 uM) (Sigma) was for parallel detection as positive control, and they were incubated for 20 minutes. (6) The probe substrate for CYP2D6 was Dextromethorphan (5 uM) (Sigma), and the selective inhibitor Quinidine (10 uM) (Sigma) was for parallel detection as positive control, and they were incubated for 20 minutes. (7) The probe substrates for CYP3A4-T and CYP3A4-M were Testosterone (5 uM) (Sigma) and Midazolam (5 uM) (Sigma), respectively, and the selective inhibitor was Ketoconazole (1 uM) (Sigma), they were detected in parallel as positive control, and incubated for 5 minutes. The reaction system was quenched by adding methanol containing the corresponding internal standard. The internal standard compound was Tolbutamide (Sigma). The concentration of the corresponding metabolites was determined by LC/MS/MS. For the data analysis, the decrease in peak area of the metabolite of the sample after addition of compound 77 relative to the peak area of the metabolite of the solvent control sample was used to calculate the IC50 (concentration of the test substance at 50% inhibition). The percentages of peak areas of metabolites of CYP1A2, CYP2B6, CYP2C8, CYP2C9, 15CYP2C19, CYP2D6, CYP3A4-T, and CYP3A4-M probe substrates after addition of different concentrations of compound 77 and selective inhibitors relative to the solvent control peak areas were shown in the Table 7.

CYP2C19 = molecular target: T2, CYP2C19 (Homo sapiens, UniProt P33261); assay: P450 enzyme inhibition, CYP2C19
T2 construct: human liver microsomes (BD Gentest) (0.5 mg/mL); tissue BD Gentest; host or cells: human liver microsomes
Protocol: as §1, §2

CYP2C8 = molecular target: T3, CYP2C8 (Homo sapiens, UniProt P10632); assay: P450 enzyme inhibition, CYP2C8
T3 construct: human liver microsomes (BD Gentest) (0.5 mg/mL); tissue BD Gentest; host or cells: human liver microsomes
T3 sequence (P10632 1-490): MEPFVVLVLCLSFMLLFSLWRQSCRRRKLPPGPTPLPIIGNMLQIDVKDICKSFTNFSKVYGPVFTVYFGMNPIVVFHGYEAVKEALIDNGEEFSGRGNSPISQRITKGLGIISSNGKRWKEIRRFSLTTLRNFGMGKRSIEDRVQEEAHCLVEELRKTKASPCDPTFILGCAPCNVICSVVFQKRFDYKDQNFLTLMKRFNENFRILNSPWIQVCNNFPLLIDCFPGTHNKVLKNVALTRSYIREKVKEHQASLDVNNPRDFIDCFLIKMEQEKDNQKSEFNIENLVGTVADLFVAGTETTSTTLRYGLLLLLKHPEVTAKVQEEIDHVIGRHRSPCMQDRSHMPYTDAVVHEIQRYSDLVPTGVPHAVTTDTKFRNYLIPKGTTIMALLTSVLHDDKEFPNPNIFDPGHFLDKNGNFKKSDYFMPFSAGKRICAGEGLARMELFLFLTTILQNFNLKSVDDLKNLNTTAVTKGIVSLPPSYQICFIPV
Protocol: as §1, §2

T2 sequence (P33261 whole entry): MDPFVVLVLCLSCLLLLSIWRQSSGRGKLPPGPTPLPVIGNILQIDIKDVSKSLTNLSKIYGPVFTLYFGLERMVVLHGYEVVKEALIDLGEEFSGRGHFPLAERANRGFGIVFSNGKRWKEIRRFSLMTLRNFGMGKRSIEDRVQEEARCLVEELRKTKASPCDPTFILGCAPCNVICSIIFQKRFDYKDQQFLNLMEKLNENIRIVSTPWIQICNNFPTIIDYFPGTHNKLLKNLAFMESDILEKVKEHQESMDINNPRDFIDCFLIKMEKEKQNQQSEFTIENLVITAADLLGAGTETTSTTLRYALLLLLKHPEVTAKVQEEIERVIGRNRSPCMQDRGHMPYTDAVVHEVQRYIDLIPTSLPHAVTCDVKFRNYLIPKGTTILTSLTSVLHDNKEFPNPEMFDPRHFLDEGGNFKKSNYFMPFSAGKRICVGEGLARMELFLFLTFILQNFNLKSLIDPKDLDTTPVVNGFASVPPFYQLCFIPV

**Q.** How did the “CYP2B6 Remaining %” value (CYP2B6; Concentration 0.25 uM) turn out when `COCCOc1ccc2c(c1)ncn2-c1ccc(NC(=O)Nc2cc(C(C)(C)C)n[nH]2)cc1` [Compound 77, 1-(5-tert-butyl-2H-pyrazol-3-yl)-3-{4-[5-(2-methoxyl-ethoxyl)-benzimidazol-1-yl]-phenyl}-urea] was run?
**A.** 106.1%

**Q.** And the “CYP2B6 Remaining %” value (CYP2B6; Concentration 0.5 uM)?
**A.** 109.6%

**Q.** And the “CYP2B6 Remaining %” value (CYP2B6; Concentration 5 uM)?
**A.** 100.4%

**Q.** What about the “CYP2B6 Remaining %” value (CYP2B6; Concentration 10 uM) of the same compound?
**A.** 90.1%

**Q.** What about the “CYP2B6 Remaining %” value (CYP2B6; Concentration 25 uM) of the same compound?
**A.** 64.6%

**Q.** And the “CYP2B6 Remaining %” value (CYP2B6; Concentration 50 uM)?
**A.** 40.1%

**Q.** And the IC50 (CYP2B6; read-out: half-inhibitory concentration (IC50) of CYP2B6)?
**A.** 39 µM

**Q.** And the “CYP2C19 Remaining %” value (CYP2C19; Concentration 0.25 uM)?
**A.** 104.2%

**Q.** What about the “CYP2C19 Remaining %” value (CYP2C19; Concentration 0.5 uM) of the same compound?
**A.** 100.8%

**Q.** What about the “CYP2C19 Remaining %” value (CYP2C19; Concentration 5 uM) of the same compound?
**A.** 106.9%

**Q.** And the “CYP2C19 Remaining %” value (CYP2C19; Concentration 10 uM)?
**A.** 102.9%

**Q.** And the “CYP2C19 Remaining %” value (CYP2C19; Concentration 25 uM)?
**A.** 91.3%

**Q.** And the “CYP2C19 Remaining %” value (CYP2C19; Concentration 50 uM)?
**A.** 67.6%

**Q.** And the IC50 (CYP2C19; read-out: half-inhibitory concentration (IC50) of CYP2C19)?
**A.** > 50 µM

**Q.** And the “CYP2C8 Remaining %” value (CYP2C8; Concentration 0.25 uM)?
**A.** 99.2%

**Q.** And the “CYP2C8 Remaining %” value (CYP2C8; Concentration 0.5 uM)?
**A.** 103.5%

**Q.** And the “CYP2C8 Remaining %” value (CYP2C8; Concentration 5 uM)?
**A.** 90.7%

**Q.** What about the “CYP2C8 Remaining %” value (CYP2C8; Concentration 10 uM) of the same compound?
**A.** 88.5%

**Q.** And the “CYP2C8 Remaining %” value (CYP2C8; Concentration 25 uM)?
**A.** 81.7%

**Q.** What about the “CYP2C8 Remaining %” value (CYP2C8; Concentration 50 uM) of the same compound?
**A.** 49.1%

**Q.** What about the IC50 (CYP2C8) of the same compound?
**A.** ≥ 50 µM
